In paper PMC13316043, “Structural basis of NSD2 degradation via targeted recruitment of SCF-FBXO22” (Nature Communications, 2026):

Target: T1, NSD2 (U2OS NSD2-HiBiT cells) (Homo sapiens, UniProt O96028)
T1 construct: RNPs were introduced into U2OS cells by electroporation; endogenous in cells; host or cells: U2OS NSD2-HiBiT clone P112 (CRISPR knock-in)
T1 sequence (O96028 1-1365): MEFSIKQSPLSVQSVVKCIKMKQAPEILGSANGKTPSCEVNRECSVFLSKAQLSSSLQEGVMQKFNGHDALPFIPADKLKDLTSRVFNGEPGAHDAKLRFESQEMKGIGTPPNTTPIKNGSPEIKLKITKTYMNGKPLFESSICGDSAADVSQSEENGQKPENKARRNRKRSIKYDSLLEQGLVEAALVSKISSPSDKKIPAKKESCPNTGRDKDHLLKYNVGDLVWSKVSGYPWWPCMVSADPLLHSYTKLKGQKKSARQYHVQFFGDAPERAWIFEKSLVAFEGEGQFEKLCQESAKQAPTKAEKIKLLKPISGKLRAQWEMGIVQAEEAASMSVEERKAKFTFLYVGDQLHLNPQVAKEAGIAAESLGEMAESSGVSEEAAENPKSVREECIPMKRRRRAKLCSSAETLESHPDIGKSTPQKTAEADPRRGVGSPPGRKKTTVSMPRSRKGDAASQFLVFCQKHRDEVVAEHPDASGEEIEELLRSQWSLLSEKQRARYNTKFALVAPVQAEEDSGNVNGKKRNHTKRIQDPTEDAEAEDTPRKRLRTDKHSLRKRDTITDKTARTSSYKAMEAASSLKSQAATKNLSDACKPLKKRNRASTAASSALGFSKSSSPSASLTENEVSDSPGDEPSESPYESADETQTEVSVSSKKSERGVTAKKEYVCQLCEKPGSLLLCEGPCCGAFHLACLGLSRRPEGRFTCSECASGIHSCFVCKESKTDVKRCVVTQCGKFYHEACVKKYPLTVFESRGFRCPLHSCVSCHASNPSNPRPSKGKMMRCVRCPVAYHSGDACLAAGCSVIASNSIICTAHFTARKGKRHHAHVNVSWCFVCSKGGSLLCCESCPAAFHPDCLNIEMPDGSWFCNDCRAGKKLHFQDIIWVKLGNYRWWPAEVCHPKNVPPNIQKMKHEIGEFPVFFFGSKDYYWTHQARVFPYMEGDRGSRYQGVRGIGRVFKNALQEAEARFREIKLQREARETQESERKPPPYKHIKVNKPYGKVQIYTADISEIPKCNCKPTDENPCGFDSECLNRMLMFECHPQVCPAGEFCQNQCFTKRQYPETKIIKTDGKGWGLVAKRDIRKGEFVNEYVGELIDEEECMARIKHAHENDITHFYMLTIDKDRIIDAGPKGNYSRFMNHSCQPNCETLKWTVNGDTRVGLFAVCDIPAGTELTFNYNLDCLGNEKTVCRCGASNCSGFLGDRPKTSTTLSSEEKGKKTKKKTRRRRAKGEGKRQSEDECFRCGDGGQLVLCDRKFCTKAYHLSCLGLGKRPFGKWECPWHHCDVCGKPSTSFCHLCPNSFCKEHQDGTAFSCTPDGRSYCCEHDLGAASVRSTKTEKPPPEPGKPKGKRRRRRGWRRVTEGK
Test: NSD2 HiBiT degradation assay
Type: cell-based
Conditions: for NSD2 Remaining (%) / reduction of NSD2 levels: U2OS NSD2-HiBit cells, 1 µM, 6 h; for DC50: dose-response, read-out: DC50 (concentration at which 50% of NSD2 is degraded)
Source text: The NSD2 genomic sequence was obtained from the UCSC genome browser and used to design sgRNAs to introduce HiBiT tags at either the 5’ or 3’ ends of the gene. sgRNA were assembled into RNPs using TrueCut Cas9 Protein v2 (Invitrogen, Cat#A36497), an sgRNA crRNA:tracrRNA duplex (below; IDT) and ssODN (below; IDT). RNPs were introduced into U2OS cells by electroporation using a Neon XT electroporation system (1750 V, 10 ms, 3 pulses) in R-buffer, using Thermo Fisher Neon transfection kit (Cat# MPK1025K) and according to the manufacturer's protocol. After plating for recovery for four days, single cell clones limited dilution cloning. Single cell clones that grew out were identified as containing integrated HiBiT tags on NSD2 by performing HiBiT assays using HiBiT lytic assay (Promega: N3040) and read on a plate reader. Clones were further confirmed by PCR analysis.
To test compounds for NSD2 degradation, a compound plate was prepared by diluting compounds in DMSO into cell media in a 384-deep-well plate (Revvity). Then, 6 µL of the diluted compounds were transferred into the well of the 384-well assay plate (Corning). 24 µL of the NSD2 HiBiT U2OS P112 cells or parental U2OS cells (3000 cells/well) were added to each well to make a final volume of 30 µL with a 0.1% final DMSO concentration. For multiple time points, multiple assay plates were made and incubated in the incubator at 37 °C in 5% CO2 for 3/6/12/24/48 hrs. 10 min before the reading, the assay plate and the Nano-Glo HiBiT Lytic Detection System (Promega) were brought to room temperature. The HiBiT lytic reagent master mix was prepared according to the product instructions and added to the assay plate. The plate was then incubated on an orbital shaker for 5 min at room temperature, equilibrated for 10 min, and then read using the GloMax luminometer (Promega) for luminescence detection. Compound treatment was normalized to the DMSO control with the background subtraction using the parental U2OS cell line as the background control, plated alongside the HiBiT U2OS P112 cells. The data and graphs were then analyzed and generated using GraphPad Prism (v 10.4.1). DC50 and Dmax were calculated by fitting the data to a non-linear regression curve.

| Compound | NSD2 Remaining (%) | reduction of NSD2 levels | fold more potent (DC50) than UNC8732 (U2OS NSD2 HiBit cells) | fold more potent (DC50) than UNC10415667 (U2OS NSD2 HiBit cells) | DC50 (U2OS NSD2 HiBit cells) | fold more potent (DC50) than UNC8732 and UNC10088 (U2OS NSD2 HiBit cells) |
| --- | --- | --- | --- | --- | --- | --- |
| Cc1cc(C=O)ccc1C(=O)N1CCc2cc(NC(=O)c3ccc(CN(C(=O)c4ccc5c(c4)OCC(=O)N5)C4CC4)cc3)ccc2C1 [UNC12149] | 7.4% | greater than 90% | ~ 10 fold | ~ 4 fold | 120 nM | – |
| O=Cc1ccc(C(=O)N2CCc3cc(NC(=O)c4ccc(CN(C(=O)c5ccc6c(c5)OCC(=O)N6)C5CC5)cc4)ccc3C2)cc1 [UNC10415667] | 20% | about 75% | – | – | 460 nM | about 2 fold |
